Data taken from patent publication US7838512B2, “DNA damaging agents in combination with tyrosine kinase inhibitors” (Arch Development Corporation, priority 1994, dated 2010).

Columns and labels:
[1] = tested on: pancreatic cancer cell; settings: in vitro; cited from earlier work
[2] = tested on: p34^cdc2; assay: Anti-cdc2 immunoprecipitates assayed for phosphorylation of H1 histone; assay type: cell-based; settings: MMC-treated cells
[3] = tested on: p59^fyn; assay: Anti-Fyn immune complex autophosphorylation assay from MMC-treated HL-60 cells; assay type: cell-based, human; settings: 10^−5 M MMC, 1 h
[4] = tested on: p56/p53^lyn and p34^cdc2; assay: Association of p56/p53^lyn with p34^cdc2 (GST-Lyn binding, coimmunoprecipitation); assay type: cell-based, human; settings: HL-60 cells, 10^−5 M MMC, 1 h
Experimental: Coimmunoprecipitation. Immunoprecipitations were performed with anti-p34^cdc2 at 5 mg/ml cell lysate. Immune complexes were collected on protein A-Sepharose beads (Pharmacia), washed three times with lysis buffer and twice with kinase buffer, resuspended in kinase buffer and then incubated for 10 min at 30° C. in the presence of 1 mCi/ml [γ-^32P]ATP. One aliquot of the kinase reaction was subjected to SDS-PAGE and autoradiography. The other aliquot was washed in lysis buffer to remove free ATP and then boiled in 20 mM Tris-HCl, pH 8.0 containing 0.5% SDS and 1 mM DTT to disrupt protein-protein interaction. After dilution to 0.1% SDS, a secondary immunoprecipitation was then performed by adding anti-Lyn antibody and protein A-Sepharose beads. The anti-Lyn immunoprecipitates were then subjected to SDS-PAGE and autoradiography.
Fusion protein binding assays. The plasmid encoding a glutathione S-transferase (GST)-Lyn (amino acids 1 to 243) fusion protein was obtained from T. Pawson, Toronto, Canada and transfected into E. coli DH5a (Pleiman et al., 1993). The fusion protein was induced with IPTG, purified by affinity chromatography using glutathione-Sepharose beads (Pharmacia) and equilibrated in lysis buffer. HL-60 cell lysates were incubated with 50 mg immobilized GST or GST-Lyn for 2 h at 4° C. […]

[5] = tested on: p56/p53^lyn; assay: Phosphorylation of cdc2 peptides by anti-Lyn immune complexes; assay type: cell-based, human; settings: HL-60 cells, MMC 1 h
Experimental: Immune complexes were also resuspended in […] kinase buffer containing 1 mCi/ml [γ-^32P]ATP and either 100 mM cdc2 peptide (amino acids 7 to 20; […]; SEQ ID NO:1) or 100 mM mutated cdc2 peptide with Phe-15 substituted for Tyr-15 ([…]; SEQ ID NO:2). The reactions were incubated for 15 min at 30° C. and terminated by spotting on P81 phosphocellulose discs (GIBCO/BRL). The discs were washed twice with 1% phosphoric acid and twice with water before analysis by liquid scintillation counting.

[6] = tested on: pp60^c-src; assay: Anti-Src immune complex kinase assay from MMC-treated HL-60 cells; assay type: cell-based, human; settings: 10^−5 M MMC, 1 h
[7] = tested on: p56/p53^lyn; assay: Immunoblot of anti-Lyn immunoprecipitates (anti-Lyn, anti-P-Tyr); assay type: cell-based, human; settings: HL-60 cells, MMC 1 h versus control
Experimental: (§1) Immunoblot analysis. Immune complexes bound to protein A-sepharose were prepared as for the autophosphorylation assays. Proteins were separated in 10% SDS-polyacrylamide gels and transferred to nitrocellulose paper. The residual binding sites were blocked by incubating the filters in 5% dry milk in PBST (PBS/0.05% Tween-20) for 1 h at room temperature. The blots were subsequently incubated with anti-cdc2 or anti-phosphotyrosine (anti-P-Tyr; MAb 4G10, UBI). After washing twice with PBST, the filters were incubated for 1 h at room temperature with anti-mouse IgG (whole molecule) peroxidase conjugate (Sigma) in 5% milk/PBST. The filters were then washed and the antigen-antibody complexes visualized by the ECL detection system (Amersham, Arlington Heights, Ill.).

[8] = tested on: p56/p53^lyn; assay: MMC added directly to the kinase reaction of anti-Lyn immune complexes from untreated HL-60 cells; assay type: biochemical, human; settings: 10^−5 M MMC added to kinase reaction, 15 min
Experimental: FIG. 4A, FIG. 4B and FIG. 4C. MMC-induced p56/p53^lyn activation is sensitive to tyrosine kinase inhibitors and is not a direct effect. […] Anti-Lyn immunoprecipitates were analyzed for phosphorylation of p56/p53^lyn and enolase. […] Lysates from untreated HL-60 cells were immunoprecipitated with anti-Lyn. […] The reaction was analyzed for phosphorylation of p56/p53^lyn and enolase.
The supernatant fraction was incubated with pre-immune rabbit serum, anti-Fyn, anti-Lyn, anti-Src (UBI, Lake Placid, N.Y.) or anti-cdc2 (sc-54, Santa Cruz Biotechnology, Santa Cruz, Calif.) antibodies for 1 h at 4° C. followed by 30 min after addition of protein A-sepharose. The immune complexes were washed three times with lysis buffer and once with kinase buffer (20 mM HEPES, pH 7.0, 10 mM MnCl2 and 10 mM MgCl2) and resuspended in […] of kinase buffer containing 1 mCi/ml [γ-^32P]ATP (3000 Ci/mmol; NEN, Boston, Mass.) with and without 5-8 mg of acid-treated enolase (Sigma). The reaction was incubated for 15 min at 30° C. and terminated by the addition of 2× SDS sample buffer. The proteins were separated in 10% SDS-polyacrylamide gels and analyzed by autoradiography. Radioactive bands were excised from certain gels and quantitated by scintillation counting.

[9] = tested on: p56/p53^lyn; assay: p56/p53^lyn activity in U-937 myeloid leukemia cells; assay type: cell-based
[10] = tested on: p56/p53^lyn; assay: Anti-Lyn immune complex kinase assay (autophosphorylation and enolase phosphorylation) from drug-treated HL-60 cells; assay type: cell-based, human; settings: for effect of pretreatment on MMC-stimulated p56/p53^lyn activity: 10^−5 M inhibitor 1 h, then MMC 1 h
[11] = tested on: p34^cdc2; assay: Immunoprecipitation of p34^cdc2 and immunoblotting with anti-P-Tyr / anti-cdc2; assay type: cell-based, human; settings: HL-60 cells, MMC 1 h
Experimental: as §1

[12] = tested on: tumor; settings: nude mice; cited from earlier work
[13] = tested on: cancer cell; settings: in vitro; cited from earlier work
[14] = tested on: p56/p53^lyn; assay: Anti-Lyn immune complex kinase assay from irradiated (200 cGy) or H2O2-treated HL-60 cells; assay type: cell-based, human; settings: for effect on X-ray-induced p56/p53^lyn activity: HL-60 cells, 200 cGy, harvested at 12 hours
Experimental: HL-60 myeloid leukemia cells were grown in RPMI-1640 medium containing 15% heat-inactivated fetal bovine serum (FBS) supplemented with 100 units/ml penicillin, […], 2 mM L-glutamine, 1 mM sodium pyruvate and 1 mM non-essential amino acids. Cells in logarithmic growth phase were suspended in complete RPMI-1640 medium with 0.5% FBS 18 hours prior to irradiation.
Irradiation was performed at room temperature using a Gammacell 1000 (Atomic Energy of Canada, Ottawa) under aerobic conditions with a ^137Cs source emitting at a fixed dose rate of 13.3 Gy/min as determined by dosimetry.
Cells (2−3×10^7) were washed twice with ice cold phosphate buffered saline (PBS) and lysed in 2 ml of lysis buffer (20 mM Tris, pH 7.4, 150 mM NaCl, 1% NP-40, 1 mM sodium vanadate, 1 mM phenylmethylsulfonyl fluoride, 1 mM DTT, and […] of leupeptin and aprotinin). After incubation on ice for 30 min, insoluble material was removed by centrifugation at 1400 rpm for 10 min at 4° C. Soluble proteins were precleared by incubation with 5 mg/ml rabbit anti-mouse IgG for 1 hour at 4° C. and then addition of protein A sepharose for 30 min.
The supernatants were incubated with 2.5 μl of anti-human Fyn, 2 μl of anti-human Lyn, 3 μl of anti-human Lyk (N-terminal) or 3 μl of anti-Src antibody (UBI, Lake Placid, N.Y.) for 1 hour at 4° C. followed by 30 min with protein A-sepharose. The immune complexes were washed three times with lysis buffer, once with kinase buffer (20 mM HEPES, pH 7.0, 10 mM MnCl2 and 10 mM MgCl2) and resuspended in 30 μl of kinase buffer containing 1 mCi/ml [γ-^32P]ATP (3000 Ci/mmol; NEN, Boston, Mass.). The reaction was incubated for 10 min at 30° C. and terminated by the addition of 2× SDS sample buffer. The proteins were resolved in 10% SDS-polyacrylamide gels, dried and analyzed by autoradiography.
Immune complexes as prepared for autophosphorylation assays were washed three times with lysis buffer and once with kinase buffer. The beads were resuspended in 30 μl of kinase buffer containing 1 mCi/ml [γ-^32p]ATP and 3-5 mg of acid treated enolase (Sigma). The reaction was incubated for 10 min at 30° C. and terminated by the addition of 2× SDS sample buffer. The proteins were resolved by 10% SDS-PAGE. Equal loading of the enolase was determined by staining with Coomassie blue. The gels were then destained and analyzed by autoradiography. Radioactive bands were also excised from the gel and -quantitated by scintillation counting.

[15] = tested on: c-jun and EGR-1 gene expression; settings: irradiated HL-60 cells; cited from earlier work
[16] = molecular target: EGF-stimulated receptors (Homo sapiens, UniProt P00533); settings: intact cells, time and dose dependent; cited from earlier work
[17] = tested on: protein-tyrosine kinase; settings: compared with erbstatin; cited from earlier work
[18] = tested on: pp110^gag-fes; settings: cited from earlier work
[19] = tested on: pp60^v-src; settings: cited from earlier work
[20] = tested on: tumor; settings: alone, in vivo; cited from earlier work

Sequence of EGF-stimulated receptors (P00533 25-1210): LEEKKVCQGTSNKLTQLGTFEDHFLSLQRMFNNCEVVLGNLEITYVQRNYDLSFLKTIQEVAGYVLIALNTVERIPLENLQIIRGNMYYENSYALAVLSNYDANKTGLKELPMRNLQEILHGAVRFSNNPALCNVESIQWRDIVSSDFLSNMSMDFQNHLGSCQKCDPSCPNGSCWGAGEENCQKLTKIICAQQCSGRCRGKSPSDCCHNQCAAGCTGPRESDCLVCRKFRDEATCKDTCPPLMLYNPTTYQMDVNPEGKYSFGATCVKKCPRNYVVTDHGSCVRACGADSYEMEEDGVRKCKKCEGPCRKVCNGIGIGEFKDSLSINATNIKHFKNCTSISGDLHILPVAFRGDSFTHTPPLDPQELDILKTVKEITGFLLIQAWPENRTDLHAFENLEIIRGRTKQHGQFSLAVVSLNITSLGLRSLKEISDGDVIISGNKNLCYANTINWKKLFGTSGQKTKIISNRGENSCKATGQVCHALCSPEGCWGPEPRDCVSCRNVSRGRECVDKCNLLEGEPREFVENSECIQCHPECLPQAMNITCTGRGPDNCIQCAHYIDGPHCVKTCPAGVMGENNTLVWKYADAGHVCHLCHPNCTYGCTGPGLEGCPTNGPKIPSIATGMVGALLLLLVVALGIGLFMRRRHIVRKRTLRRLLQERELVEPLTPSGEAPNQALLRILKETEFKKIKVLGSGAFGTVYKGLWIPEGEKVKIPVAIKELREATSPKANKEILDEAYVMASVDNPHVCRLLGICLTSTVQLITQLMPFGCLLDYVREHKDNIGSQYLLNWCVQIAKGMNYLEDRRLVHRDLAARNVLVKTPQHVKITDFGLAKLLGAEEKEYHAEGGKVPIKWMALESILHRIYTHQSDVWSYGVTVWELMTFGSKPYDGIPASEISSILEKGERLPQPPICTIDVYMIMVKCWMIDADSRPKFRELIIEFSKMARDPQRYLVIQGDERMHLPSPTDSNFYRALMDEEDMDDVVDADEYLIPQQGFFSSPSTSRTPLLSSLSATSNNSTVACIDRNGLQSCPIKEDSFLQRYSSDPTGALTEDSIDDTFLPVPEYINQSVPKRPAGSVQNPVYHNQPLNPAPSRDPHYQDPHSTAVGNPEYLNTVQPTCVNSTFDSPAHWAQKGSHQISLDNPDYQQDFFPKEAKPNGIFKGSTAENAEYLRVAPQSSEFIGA

N#C/C(=C\c1ccc(O)c(O)c1)C(N)=S [T47]
pancreatic cancer cell growth [1]: inhibit pancreatic cancer cell growth

CC(C)(C)c1cc(C=C(C#N)C#N)cc(C(C)(C)C)c1O [AG17]
pancreatic cancer cell growth [1]: inhibit pancreatic cancer cell growth

CO[C@@]12[C@H](COC(N)=O)C3=C(C(=O)C(C)=C(N)C3=O)N1C[C@@H]1N[C@@H]12 [MMC, Mitomycin C]
p34^cdc2 kinase activity (H1 histone phosphorylation) [2]: loss of kinase activity | autophosphorylation of p59^fyn [3]: decreased | interaction between p56/p53^lyn and p34^cdc2 [4]: induces an interaction | phosphorylation of mutated cdc2 peptide (Tyr-15 to Phe-15) by anti-Lyn complexes [5]: little phosphorylation | stimulation of cdc2 peptide phosphorylation by anti-Lyn immune complexes ([5]; versus control cells, cdc2 peptide amino acids 7 to 20): ~2 fold | pp60^c-src activity [6]: decrease | tyrosine phosphorylation of p56/p53^lyn (anti-P-Tyr immunoblot) [7]: increase in tyrosine phosphorylation | kinase activity of anti-Lyn immune complexes incubated with MMC [8]: decrease in kinase activity | p56/p53^lyn activity [9]: increases in p56/p53^lyn activity | increase in enolase phosphorylation ([10]; 10^−5 M MMC, 30 min): 4.2 fold | p56/p53^lyn activity (autophosphorylation of anti-Lyn immunoprecipitates) ([10]; 10^−5 M MMC, 1 h): increase | increase in enolase phosphorylation ([10]; 10^−5 M MMC, 12 h): 4.1 fold | p56/p53^lyn activity (phosphorylation of p56/p53^lyn and enolase) ([10]; 10^−6 and 10^−5 M MMC, 1 h): more pronounced stimulation | p56/p53^lyn activity (phosphorylation of p56/p53^lyn and enolase) ([10]; 10^−8 and 10^−7 M MMC, 1 h): Increases | tyrosine phosphorylation of p34^cdc2 (anti-P-Tyr reactivity of anti-cdc2 precipitates) [11]: increase in reactivity

N#C/C(=C\c1cc(Cl)cc(Cl)c1)c1cccnc1 [RG-14620, (Z)-alpha-[(3,5-dichlorophenyl)methylene]-3-pyridylacetonitrile]
tumor growth [12]: suppress | cancer cell proliferation [13]: suppress

COc1ccc(/C=C(\C#N)c2cccnc2)cc1OC [RG-13022]
tumor growth [12]: suppress | cancer cell proliferation [13]: suppress

N.N.[Cl][Pt][Cl] [cis-platinum]
p56/p53^lyn kinase activity (phosphorylation of p56/p53^lyn and enolase) ([10]; 10^−5 M, 1 h): stimulation of the p56/p53^lyn kinase

OO [H2O2]
phosphorylation of p56/p53^lyn or enolase ([14]; HL-60 cells treated with 50 mM H2O2): did not show a detectable increase

N#CC(C#N)=Cc1ccc(O)c(O)c1 [AG18]
pancreatic cancer cell growth [1]: inhibit pancreatic cancer cell growth

CC(=O)N[C@@H](CS)C(=O)O [NAC, N-acetyl cysteine]
effect on induction of c-jun and EGR-1 gene expression [15]: completely blocks | effect on X-ray-induced p56/p53^lyn activity ([14]; 30 mM NAC 1 hour): little effect

CO[C@H]1[C@@H](OC)C[C@H](C)[C@@H](OC)C2=CC(=O)C=C(NC(=O)/C(C)=C/C=C\[C@H](OC)[C@@H](OC(N)=O)/C(C)=C/[C@@H]1C)C2=O [herbimycin A]
effect on X-ray-induced p56/p53^lyn activity ([14]; 10 μM inhibitor 1 hour): inhibited | effect of pretreatment on MMC-stimulated p56/p53^lyn activity [10]: completely blocks | autophosphorylation of EGF-stimulated receptors [16]: inhibit the autophosphorylation

O=C(O)c1cc(N(Cc2ccccc2O)Cc2cc(O)ccc2O)ccc1O [Lavendustin A]
inhibitory potency relative to erbstatin [17]: about 50 times

O=c1c(-c2ccc(O)cc2)coc2cc(O)cc(O)c12 [genistein]
inhibitory activity against pp110^gag-fes [18]: specific inhibitory activity | inhibitory activity against pp60^v-src [19]: specific inhibitory activity | effect on X-ray-induced p56/p53^lyn activity ([14]; 10 μM inhibitor 1 hour): inhibited | effect of pretreatment on MMC-stimulated p56/p53^lyn activity [10]: completely blocks

Cc1c[nH]c2c1[C@@]13C[C@@H]1CN(C(=O)c1cc4cc(NC(=O)c5cc6ccccc6o5)ccc4[nH]1)C3=CC2=O [adozelesin]
p56/p53^lyn and enolase phosphorylation ([10]; 2×10^−6 M, 1 h): stimulation of p56/p53^lyn and enolase phosphorylation

O=C1NC(=O)c2cc(Nc3ccccc3)c(Nc3ccccc3)cc21 [4,5-Dianilinophthalimide]
antitumor activity [20]: in vivo antitumor activity
